Test results reported in US12408604B2, “Method for producing avenanthramide-rich oats using active elicitors” (KOREA RESEARCH INSTITUTE OF BIOSCIENCE AND BIOTECHNOLOGY, priority 2020, dated 2025).

Assays:
Type in all cases: in vivo
Choyang oats = experiment: Production (content) of avenanthramides in germinated oats treated with elicitors, HPLC analysis; conditions: for production of avenanthramides compared to control group: Example 3, FIG. 2, SA vs control DW, ABA vs control EtOH; for production of avenanthramides over tested concentrations: Example 5, MJ 10-100 μM, ABA 10-300 μM; for synthesis amount / content of avenanthramides in oats compared to other elicitors: Examples 3 and 4, FIG. 2
Procedure: In an embodiment of the present invention, a domestic cultivated breed, Choyang oats, was used. The Choyang oat seeds were immersed for 12 hours, and then sterilized at 50° C. for 10 minutes and used. Two sheets of sterile filter paper were laid on a plant culture dish, poured with 7 ml of water, and then the sterilized Choyang oat seeds were placed and cold-treated at 4° C. for two days. The Choyang oat seeds were cultured under culture conditions of 25° C. and a photoperiod of 16L:8D.
Analysis of avenanthramides of germinated oats recovered in Example of the present invention was performed as follows. First, the obtained germinated oats were powdered using liquid nitrogen. 0.1 g of the oat powder was extracted with 1 ml of 80% methanol, and then sonicated at 50° C. for 20 minutes, extracted, and then centrifuged to obtain an oat extract from an upper layer. The extracted filtrate was dried by injecting air, and the dried product was dissolved in 200 μl of 80% methanol, and filtered using 0.2 μm PTFE (hydrophilic, ADVANTEC, Japan), and the sample was used for high-performance liquid chromatography (HPLC) analysis. A pump system used 4 solvent pumps (quaternary pumps), and a column used ZORBAX SB-18 ([…], 4.6×150 mm) from Agilent, and a mobile phase was analyzed by using gradient elution using water (A, 5% acetonitrile, 0.1% formic acid) and acetonitrile. (B, 0.1% formic acid).
After treatment with the elicitors for 3 days, the avenanthramides were harvested and HPLC was performed. The elicitors used at this time were methyl jasmonate (MJ), abscisic acid (ABA), salicylic acid (SA), ethephon (ET), methyl viologen (MV), and chitosan (CHI). DW was used as a solvent for MV, CHI, and SA, and EtOH was used as a solvent for ET, MJ, and ABA. A case of treating only DW and EtOH (0.1%), which are solvents of each elicitor, was set as a control.
Like in Example 3, 10 μM, 20 μM, 25 μM, 50 μM, 75 μM, and 100 μM of MJ and 10 μM, 20 μM, 25 μM, 50 μM, 75 μM, 100 μM, and 300 μM of ABA were treated by concentration on day 2 after germination, recovered on day 5 after germination, then frozen using liquid nitrogen, and stored at −80° C. until extraction and used. As a control, EtOH, a solvent of MJ and ABA, was treated at a concentration of 0.1%. The experimental results were shown in Tables 2 and 3 and FIGS. 4 and 5 below. […]

AsPAL = experiment: qRT-PCR transcriptional expression of avenanthramide biosynthetic gene AsPAL in elicitor-treated oats; conditions: single elicitor treatment, Example 4, FIG. 3
Procedure: (§1) Specifically, total RNA was isolated from the recovered oats, and cDNA was synthesized from the isolated total RNA using a First-Strand CDNA Synthesis Kit (Fermantas, Canada). By using the synthesized cDNA, qRT-PCR was performed on avenanthramide biosynthesis-related genes.
(§2) For the qRT-PCR amplification, a Quick Guide from BIOFACT was used, and a process of initial denaturation at 95° C. for 15 minutes and denaturation at 95° C. for 20 seconds, binding and elongation at […] for 40 seconds was repeated 40 times, and melting curve analysis was performed at 65° C. to 95° C. by 1° C. for 0.5 second.
(§3) Primers for avenanthramides biosynthesis genes and actin qRT-PCR used for the experiment were as follows.

AsHHT4 = experiment: qRT-PCR transcriptional expression of avenanthramide biosynthetic gene AsHHT4 in elicitor-treated oats; conditions: single elicitor treatment, Example 4, FIG. 3
Procedure: as §1, §2, §3

[1] = 10 μM elicitor, control EtOH 0.1%
[2] = 10 μM elicitor, treated day 2, recovered day 5 after germination
[3] = 20 μM elicitor, control EtOH 0.1%
[4] = 20 μM elicitor, treated day 2, recovered day 5 after germination
[5] = 25 μM elicitor, control EtOH 0.1%
[6] = 25 μM elicitor, treated day 2, recovered day 5 after germination
[7] = 50 μM elicitor, control EtOH 0.1%
[8] = 50 μM elicitor, treated day 2, recovered day 5 after germination
[9] = 75 μM elicitor, control EtOH 0.1%
[10] = 75 μM elicitor, treated day 2, recovered day 5 after germination
[11] = 100 μM elicitor, control EtOH 0.1%
[12] = 100 μM elicitor, treated day 2, recovered day 5 after germination
[13] = 300 μM elicitor, treated day 2, recovered day 5 after germination
[14] = Example 3, elicitor treated on day 2 after germination induction for 3 days, concentration not given
[15] = Example 3, total avenanthramides, control DW for MV, CHI, SA, control EtOH for ET, MJ, ABA

What does the source list for `CC1=CC(=O)CC(C)(C)[C@@]1(O)/C=C/C(C)=C\C(=O)O` [ABA, abscisic acid]?
Compared to control (Choyang oats; [1]): 176.85%; avnA (Choyang oats; [2]): 177.8 mg/kg, FW; avnB (Choyang oats; [2]): 299.1 mg/kg, FW; avnC (Choyang oats; [2]): 197.11 mg/kg, FW; total (Choyang oats; [2]): 674.01 mg/kg, FW; Compared to control (Choyang oats; [3]): 185.33%; avnA (Choyang oats; [4]): 185.34 mg/kg, FW; avnB (Choyang oats; [4]): 319.67 mg/kg, FW; avnC (Choyang oats; [4]): 189.65 mg/kg, FW; total (Choyang oats; [4]): 694.66 mg/kg, FW; Compared to control (Choyang oats; [5]): 225.40%; avnA (Choyang oats; [6]): 202.56 mg/kg, FW; avnB (Choyang oats; [6]): 363.51 mg/kg, FW; avnC (Choyang oats; [6]): 226.14 mg/kg, FW; total (Choyang oats; [6]): 792.21 mg/kg, FW; Compared to control (Choyang oats; [7]): 240.45%; avnA (Choyang oats; [8]): 206.95 mg/kg, FW; avnB (Choyang oats; [8]): 385.73 mg/kg, FW; avnC (Choyang oats; [8]): 236.19 mg/kg, FW; total (Choyang oats; [8]): 828.87 mg/kg, FW; Compared to control (Choyang oats; [9]): 217.58%; avnA (Choyang oats; [10]): 211.62 mg/kg, FW; avnB (Choyang oats; [10]): 328.63 mg/kg, FW; avnC (Choyang oats; [10]): 232.94 mg/kg, FW; total (Choyang oats; [10]): 773.19 mg/kg, FW; Compared to control (Choyang oats; [11]): 184.80%; avnA (Choyang oats; [12]): 186.05 mg/kg, FW; avnB (Choyang oats; [12]): 309.78 mg/kg, FW; avnC (Choyang oats; [12]): 197.55 mg/kg, FW; total (Choyang oats; [12]): 693.38 mg/kg, FW; Compared to control (Choyang oats; 300 μM elicitor, control EtOH 0.1%): 189.98%; avnA (Choyang oats; [13]): 193.65 mg/kg, FW; avnB (Choyang oats; [13]): 328.02 mg/kg, FW; avnC (Choyang oats; [13]): 184.32 mg/kg, FW; total (Choyang oats; [13]): 705.99 mg/kg, FW; largest amount of avenanthramides produced (Choyang oats; ABA at a 50 μM concentration (FIG. 5)): up to 828.8 mg/kg; production of avenanthramides in oats (Choyang oats; ABA at concentrations of 20 to 300 μM): significantly increased; production of avenanthramide C (Choyang oats; Example 3): specifically increased the most; production of avenanthramides compared to control group (Choyang oats; CHI, MJ): significantly increased; avnA (Choyang oats; [14]): 193.78 mg/kg, FW; avnB (Choyang oats; [14]): 207.37 mg/kg, FW; avnC (Choyang oats; [14]): 241.72 mg/kg, FW; total (Choyang oats; [14]): 642.87 mg/kg, FW; Compared to control (Choyang oats; [15]): 176.42%; production of avenanthramides over tested concentrations (Choyang oats): increased at all concentrations; synthesis amount / content of avenanthramides in oats compared to other elicitors (Choyang oats): most increased; synthesis amount / content of avenanthramides in oats compared to other elicitors (Choyang oats; listed as abscisic acid): increased most; expression of AsPAL gene (AsPAL): increased; expression of AsHHT4 gene (AsHHT4): increased

What does the source list for `O=C(O)c1ccccc1O` [SA, salicylic acid]?
production of avenanthramides compared to control group (Choyang oats; CHI, MJ): slightly decreased; avnA (Choyang oats; [14]): 90.53 mg/kg, FW; avnB (Choyang oats; [14]): 149.58 mg/kg, FW; avnC (Choyang oats; [14]): 64.34 mg/kg, FW; total (Choyang oats; [14]): 304.45 mg/kg, FW; Compared to control (Choyang oats; [15]): −9.38%

`CC/C=C\C[C@H]1C(=O)CC[C@@H]1CC(=O)OC` [MJ, methyl jasmonate] was tested. Which Compared to control (Choyang oats; [1]) did it give?
Its Compared to control is 37.41%.

And the avnA (Choyang oats; [2])?
The avnA was 93.22 mg/kg, FW.

And the avnB (Choyang oats; [2])?
The avnB was 163.98 mg/kg, FW.

And the avnC (Choyang oats; [2])?
The avnC was 77.35 mg/kg, FW.

What about the total (Choyang oats; [2]) of the same compound?
Its total is 334.55 mg/kg, FW.

And the Compared to control (Choyang oats; [3])?
Its Compared to control is 45.03%.

What about the avnA (Choyang oats; [4]) of the same compound?
Its avnA is 98.32 mg/kg, FW.

And the avnB (Choyang oats; [4])?
Its avnB is 168.66 mg/kg, FW.

And the avnC (Choyang oats; [4])?
Its avnC is 86.12 mg/kg, FW.

What about the total (Choyang oats; [4]) of the same compound?
The total was 353.1 mg/kg, FW.

What about the Compared to control (Choyang oats; [5]) of the same compound?
The Compared to control was 57.97%.

What about the avnA (Choyang oats; [6]) of the same compound?
The avnA was 105.54 mg/kg, FW.

And the avnB (Choyang oats; [6])?
The avnB was 200.86 mg/kg, FW.

And the avnC (Choyang oats; [6])?
The avnC was 78.2 mg/kg, FW.

What about the total (Choyang oats; [6]) of the same compound?
Its total is 384.6 mg/kg, FW.

And the Compared to control (Choyang oats; [7])?
Its Compared to control is 99.80%.

What about the avnA (Choyang oats; [8]) of the same compound?
The avnA was 147.03 mg/kg, FW.

And the avnB (Choyang oats; [8])?
The avnB was 222.81 mg/kg, FW.

And the avnC (Choyang oats; [8])?
Its avnC is 116.59 mg/kg, FW.

What about the total (Choyang oats; [8]) of the same compound?
Its total is 486.43 mg/kg, FW.

What about the Compared to control (Choyang oats; [9]) of the same compound?
Its Compared to control is 137.67%.

What about the avnA (Choyang oats; [10]) of the same compound?
Its avnA is 179.81 mg/kg, FW.

And the avnB (Choyang oats; [10])?
The avnB was 268.73 mg/kg, FW.

And the avnC (Choyang oats; [10])?
Its avnC is 130.08 mg/kg, FW.

What about the total (Choyang oats; [10]) of the same compound?
Its total is 578.62 mg/kg, FW.

And the Compared to control (Choyang oats; [11])?
The Compared to control was 88.13%.

And the avnA (Choyang oats; [12])?
Its avnA is 138.82 mg/kg, FW.

And the avnB (Choyang oats; [12])?
Its avnB is 218.47 mg/kg, FW.

What about the avnC (Choyang oats; [12]) of the same compound?
The avnC was 100.73 mg/kg, FW.

And the total (Choyang oats; [12])?
Its total is 458.02 mg/kg, FW.

And the “production of avenanthramides compared to control group” value (Choyang oats; CHI, MJ)?
Its value is “significantly increased”.

And the avnA (Choyang oats; [14])?
Its avnA is 190.07 mg/kg, FW.

And the avnB (Choyang oats; [14])?
The avnB was 260.43 mg/kg, FW.

And the avnC (Choyang oats; [14])?
The avnC was 132.39 mg/kg, FW.

And the total (Choyang oats; [14])?
Its total is 582.89 mg/kg, FW.

And the Compared to control (Choyang oats; [15])?
The Compared to control was 150.63%.

What about the “production of avenanthramides over tested concentrations” value (Choyang oats) of the same compound?
Its value is “increased at all concentrations”.

What about the “synthesis amount / content of avenanthramides in oats compared to other elicitors” value (Choyang oats) of the same compound?
The value was “most increased”.

What about the “synthesis amount / content of avenanthramides in oats compared to other elicitors” value (Choyang oats; listed as methyl jasmonate) of the same compound?
Its value is “increased most”.

And the “largest amount of avenanthramides produced” value (Choyang oats; MJ at a concentration of 75 μM (FIG. 4))?
The value was “up to 578.6 mg/kg”.

And the “production of avenanthramides in oats” value (Choyang oats; MJ at concentrations of 10 μM to 100 μM)?
Its value is “significantly increased”.

What about the “expression of AsPAL gene” value (AsPAL) of the same compound?
The value was “increased”.

What about the “expression of AsHHT4 gene” value (AsHHT4) of the same compound?
The value was “increased”.

Which avnA (Choyang oats; [14]) does the source give for `O=P(O)(O)CCCl` [ET, ethephon] here?
The avnA was 86 mg/kg, FW.

And the avnB (Choyang oats; [14])?
The avnB was 145.36 mg/kg, FW.

And the avnC (Choyang oats; [14])?
Its avnC is 74.96 mg/kg, FW.

And the total (Choyang oats; [14])?
Its total is 306.32 mg/kg, FW.

And the Compared to control (Choyang oats; [15])?
The Compared to control was 31.71%.

What does the source list for `C[n+]1ccc(-c2cc[n+](C)cc2)cc1` [MV, methyl viologen]?
avnA (Choyang oats; [14]): 95.37 mg/kg, FW; avnB (Choyang oats; [14]): 169.01 mg/kg, FW; avnC (Choyang oats; [14]): 84.14 mg/kg, FW; total (Choyang oats; [14]): 348.52 mg/kg, FW; Compared to control (Choyang oats; [15]): 3.74%
